Measured values as given in ChEMBL document CHEMBL6083292, “Discovery of Novel N-Sulfonamide-tetrahydroquinolines as Potent Retinoic Acid Receptor-Related Orphan Receptor γt (RORγt) Inverse Agonists for the Treatment of Psoriasis” (J Med Chem, 2024).
pIC50: −log10 of the molar value. Active and inactive are the calls of the source. The rule behind the calls is not given here.

Tests used:
[1] = target: T1, Nuclear receptor ROR-gamma (Homo sapiens, UniProt P51449); assay: Inverse agonist activity at APC-labeled RORgammat LBD (unknown origin) assessed as inhibition of europium-labeled SRC-1 recruitment incubated for 1 hrs by dual FRET assay
T1 sequence (P51449 whole entry): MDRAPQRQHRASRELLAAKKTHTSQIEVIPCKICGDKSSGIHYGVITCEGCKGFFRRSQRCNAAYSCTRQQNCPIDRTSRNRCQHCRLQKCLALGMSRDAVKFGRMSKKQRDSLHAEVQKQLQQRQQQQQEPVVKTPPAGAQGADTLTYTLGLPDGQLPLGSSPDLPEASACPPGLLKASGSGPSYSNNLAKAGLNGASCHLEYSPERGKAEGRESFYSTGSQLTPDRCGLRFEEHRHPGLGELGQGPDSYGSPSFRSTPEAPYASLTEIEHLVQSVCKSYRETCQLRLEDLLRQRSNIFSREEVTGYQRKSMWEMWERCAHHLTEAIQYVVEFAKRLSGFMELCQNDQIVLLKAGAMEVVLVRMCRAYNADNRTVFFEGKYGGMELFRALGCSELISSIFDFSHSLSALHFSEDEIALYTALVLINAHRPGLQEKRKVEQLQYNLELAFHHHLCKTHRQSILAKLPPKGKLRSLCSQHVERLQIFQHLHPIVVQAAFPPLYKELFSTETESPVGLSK

[2] = Inhibition of mouse Th17 cells differentiation from CD4+ T cells assessed as maximum inhibition flow cytometric analysis relative to control; format: functional
[3] = Metabolic stability in CD-1 mouse liver microsomes assessed as half life preincubated for 5 mins followed by NADPH addition and measured upto 60 mins by LC-MS/MS analysis; format: ADME, Microsome; conditions: time < 65 min
Mus musculus [4] = assay: Anti-inflammatory activity in imiquimod-induced BALB/c mouse psoriasis model assessed as appearance of smooth skin at 4 % administered topically as ointment once a day for 11 days by H and E staining based analysis; format: functional, organism-based; conditions: time 11.0 day
[5] = Acute toxicity in BALB/c mouse assessed as body weight gain at 10 to 20 % administered topically as ointment once a day for 12 days; conditions: in vivo, topical_or_ocular, 288 h, dose 10-20 %, time 12 day
[6] = Drug concentration in pig ear assessed as retention amount at 0.0085 g administered intradermally as 4 % ointment measured at 12 hrs; format: ADME, tissue-based, Sus scrofa; conditions: in vivo, other
[7] = Metabolic stability in CD-1 mouse microsomes assessed as intrinsic clearance preincubated for 5 mins followed by NADPH addition and measured upto 60 mins by LC-MS/MS analysis; format: ADME, Microsome; conditions: time < 65 min, read-out: CLH
[8] = target: Voltage-gated inwardly rectifying potassium channel KCNH2 (Homo sapiens, UniProt Q12809); assay: Inhibition of hERG at -80 mV holding potential measured for 2.5 mins; format: toxicity
Chain of Voltage-gated inwardly rectifying potassium channel KCNH2 (Q12809 whole entry): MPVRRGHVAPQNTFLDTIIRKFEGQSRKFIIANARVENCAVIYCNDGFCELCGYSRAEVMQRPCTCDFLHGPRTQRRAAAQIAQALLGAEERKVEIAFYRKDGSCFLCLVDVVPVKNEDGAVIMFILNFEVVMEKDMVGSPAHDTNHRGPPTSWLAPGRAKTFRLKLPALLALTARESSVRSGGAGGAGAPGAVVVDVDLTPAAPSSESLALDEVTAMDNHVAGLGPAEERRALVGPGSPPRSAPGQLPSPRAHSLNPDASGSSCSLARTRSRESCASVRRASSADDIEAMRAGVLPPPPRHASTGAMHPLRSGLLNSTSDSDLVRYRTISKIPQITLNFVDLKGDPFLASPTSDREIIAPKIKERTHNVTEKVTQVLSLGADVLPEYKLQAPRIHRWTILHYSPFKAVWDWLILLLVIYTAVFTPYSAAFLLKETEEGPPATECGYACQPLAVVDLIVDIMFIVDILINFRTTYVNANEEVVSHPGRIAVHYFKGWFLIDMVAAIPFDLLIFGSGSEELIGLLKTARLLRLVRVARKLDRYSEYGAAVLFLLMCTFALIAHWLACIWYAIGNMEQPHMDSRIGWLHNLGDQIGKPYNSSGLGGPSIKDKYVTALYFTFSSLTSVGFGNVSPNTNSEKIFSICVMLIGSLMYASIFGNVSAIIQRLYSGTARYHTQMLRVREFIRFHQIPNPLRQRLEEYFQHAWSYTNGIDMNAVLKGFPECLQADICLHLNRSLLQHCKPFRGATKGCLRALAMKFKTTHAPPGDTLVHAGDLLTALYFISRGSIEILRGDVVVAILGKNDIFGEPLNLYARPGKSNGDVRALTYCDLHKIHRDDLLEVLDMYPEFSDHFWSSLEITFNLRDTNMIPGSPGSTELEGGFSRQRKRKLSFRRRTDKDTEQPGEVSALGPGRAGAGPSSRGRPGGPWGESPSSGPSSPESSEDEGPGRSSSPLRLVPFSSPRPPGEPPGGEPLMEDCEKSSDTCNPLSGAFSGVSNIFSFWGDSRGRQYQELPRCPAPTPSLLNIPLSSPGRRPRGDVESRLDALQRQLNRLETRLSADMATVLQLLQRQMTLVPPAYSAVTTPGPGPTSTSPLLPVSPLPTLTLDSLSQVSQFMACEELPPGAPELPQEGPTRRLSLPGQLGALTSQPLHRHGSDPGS

[9] = Inhibition of mouse Th17 cells differentiation from CD4+ T cells flow cytometric analysis
[10] = Drug concentration in BALB/c mouse plasma at 4 % administered topically as ointment measured at 2 hrs; format: ADME, cell-free; conditions: topical_or_ocular
[11] = Drug concentration in pig ear assessed as retention amount at 0.0094 g administered intradermally as 4 % ointment measured at 12 hrs; format: ADME, tissue-based, Sus scrofa; conditions: in vivo, other
Mus musculus [12] = assay: Antiinflammatory activity against imiquimod-induced psoriasis BALB/c mouse model assessed as effect on spleen enlargement at 100 mg/kg, ip qd for 7 days; format: functional, organism-based; conditions: time 7.0 day
[13] = Metabolic stability in CD-1 mouse liver assessed as intrinsic clearance preincubated for 5 mins followed by NADPH addition and measured upto 60 mins by LC-MS/MS analysis; format: ADME, tissue-based; conditions: time < 65 min, read-out: CLH
[14] = Drug concentration in pig ear assessed as retention rate at 0.0090 g administered intradermally as 4 % ointment measured at 12 hrs; format: ADME, tissue-based, Sus scrofa; conditions: in vivo, other
[15] = Acute toxicity in BALB/c mouse at 20 % administered topically as ointment once a day for 12 days; conditions: in vivo, topical_or_ocular, 288 h, time 12 day
[16] = Acute toxicity in BALB/c mouse assessed as signs of morbidity at 10 to 20 % administered topically as ointment once a day for 12 days; conditions: in vivo, topical_or_ocular, 288 h, dose 10-20 %, time 12 day
Mus musculus [17] = assay: Antiinflammatory activity against imiquimod-induced psoriasis BALB/c mouse model assessed as reduction in body weight at 100 mg/kg, ip qd for 7 days; format: functional; parameters: scale not given: the % may be the effect or the level left; conditions: time 7 day
Mus musculus [18] = assay: Anti-inflammatory activity in imiquimod-induced BALB/c mouse psoriasis model assessed as appearance of clear sebaceous gland at 4 % administered topically as ointment once a day for 11 days by H and E staining based analysis; format: functional, organism-based; conditions: time 11.0 day
Mus musculus [19] = assay: Antiinflammatory activity against imiquimod-induced psoriasis BALB/c mouse model assessed as body weight at 100 mg/kg, ip qd for 7 days; format: functional; conditions: time 7 day
[20] = Drug concentration in pig ear assessed as retention rate at 0.0094 g administered intradermally as 4 % ointment measured at 12 hrs; format: ADME, tissue-based, Sus scrofa; conditions: in vivo, other
[21] = Drug concentration in pig ear assessed as retention rate at 0.0086 g administered intradermally as 4 % ointment measured at 12 hrs; format: ADME, tissue-based, Sus scrofa; conditions: in vivo, other
[22] = Drug concentration in pig ear assessed as retention rate at 0.0085 g administered intradermally as 4 % ointment measured at 12 hrs; format: ADME, tissue-based, Sus scrofa; conditions: in vivo, other
Mus musculus [23] = assay: Anti-inflammatory activity in imiquimod-induced BALB/c mouse psoriasis model assessed as reduction in dermal inflammatory cell infiltration at 4 % administered topically as ointment once a day for 11 days by H and E staining based analysis; format: functional, organism-based; conditions: time 11.0 day
[24] = Drug concentration in BALB/c mouse plasma at 4 % administered topically as ointment measured at 10 mins; format: ADME, cell-free; conditions: topical or ocular
Mus musculus [25] = assay: Antiinflammatory activity against imiquimod-induced psoriasis BALB/c mouse model at 4 % administered topically as ointment once a day for 11 days; format: functional, organism-based; conditions: time 11.0 day
Mus musculus [26] = assay: Antiinflammatory activity against imiquimod-induced psoriasis BALB/c mouse model at 1 to 4 % administered topically as ointment once a day for 11 days; format: functional, organism-based; conditions: time 11.0 day
Mus musculus [27] = assay: Anti-inflammatory activity in imiquimod-induced BALB/c mouse psoriasis model assessed as improvement in spinous cell layer at 4 % administered topically as ointment once a day for 11 days by H and E staining based analysis; format: functional, organism-based; conditions: time 11.0 day
[28] = Toxicity in BALB/c mouse assessed as change in body weight at 0.25 to 4 % administered topically as ointment once a day for 11 days; conditions: in vivo, topical_or_ocular, 264 h, dose 0.25-4 %, time 11 day
[29] = Acute toxicity in BALB/c mouse assessed as signs of mortality at 10 to 20 % administered topically as ointment once a day for 12 days; conditions: in vivo, topical_or_ocular, 288 h, dose 10-20 %, time 12 day
[30] = Drug concentration in pig ear assessed as retention amount at 0.0090 g administered intradermally as 4 % ointment measured at 12 hrs; format: ADME, tissue-based, Sus scrofa; conditions: in vivo, other
Mus musculus [31] = assay: Antiinflammatory activity against imiquimod-induced psoriasis BALB/c mouse model assessed as change in ear thickness at 100 mg/kg, ip qd for 7 days; format: functional, organism-based; conditions: time 7.0 day
Mus musculus [32] = assay: Anti-inflammatory activity in imiquimod-induced BALB/c mouse psoriasis model assessed as appearance of clear hair follicle at 4 % administered topically as ointment once a day for 11 days by H and E staining based analysis; format: functional, organism-based; conditions: time 11.0 day
Mus musculus [33] = assay: Antiinflammatory activity against imiquimod-induced psoriasis BALB/c mouse model at 0.25 to 4 % administered topically as ointment once a day for 11 days; format: functional, organism-based; conditions: dose 0.25-4 %, time 11.0 day
Mus musculus [34] = assay: Antiinflammatory activity against imiquimod-induced psoriasis BALB/c mouse model assessed as change in ear erythema score at 100 mg/kg, ip qd for 7 days; format: functional, organism-based; conditions: time 7.0 day
[35] = Toxicity in BALB/c mouse assessed as change in body weight at 4 % administered topically as ointment once a day for 11 days; conditions: in vivo, topical_or_ocular, 264 h, time 11 day
Mus musculus [36] = assay: Antiinflammatory activity against imiquimod-induced psoriasis BALB/c mouse model assessed as reduction in spleen to body weight ratio at 5 mg/kg, ip qd for 7 days; format: functional, organism-based; conditions: time 7.0 day
Mus musculus [37] = assay: Antiinflammatory activity against imiquimod-induced psoriasis BALB/c mouse model assessed as reduction in body weight at 5 mg/kg, ip qd for 7 days; format: functional; parameters: scale not given: the % may be the effect or the level left; conditions: time 7 day
Mus musculus [38] = assay: Antiinflammatory activity against imiquimod-induced psoriasis BALB/c mouse model assessed as body weight at 5 mg/kg, ip qd for 7 days; format: functional; conditions: time 7 day

SMILES: CCc1ccc(N(C)S(=O)(=O)N2CCCc3cc(N4CCN(C(C)=O)CC4)ccc32)cc1
- pIC50 [1]: 4.88

SMILES: CC(=O)N1CCN(c2cc(F)c3c(c2)CCCN3S(=O)(=O)N(C)Cc2ccccc2)CC1
- pIC50 [1]: 7.68

SMILES: CN(Cc1ccccc1)S(=O)(=O)N1CCCc2cc(N3CCN(C(=O)C4CCOCC4)CC3)ccc21
- pIC50 [1]: 5.17

SMILES: CC(=O)N1CCN(c2ccc3c(c2)CCCN3S(=O)(=O)N(C)Cc2ccc(SC(F)(F)F)cc2)CC1
- pIC50 [1]: 5.18

SMILES: CC(=O)N1CCN(c2ccc(CN(C3CCC3)S(=O)(=O)Cc3ccccc3)cc2)CC1
- Imax [2]: 90.1%

SMILES: CN(Cc1ccccc1)S(=O)(=O)N1CCCc2cc(N3CCN(C(=O)C4CCCC4)CC3)ccc21
- pIC50 [1]: 5.48

SMILES: CN(Cc1ccc(C(C)(C)C)cc1)S(=O)(=O)N1CCCc2cc(N3CCC(C(=O)O)CC3)ccc21
- pIC50 [1]: 6.54

SMILES: CC(=O)N1CCN(c2ccc3c(c2)CCCN3S(=O)(=O)N(C)C(C)c2ccc(F)cc2)CC1 (stereo not drawn)
- pIC50 [1]: 4.57

SMILES: CC(=O)N1CCN(c2ccc3c(c2)CCCN3S(=O)(=O)N(C)Cc2ccc(C(F)(F)F)o2)CC1
- pIC50 [1]: 4.57

SMILES: CC(=O)N1CCN(c2ccc3c(c2)C(C)(C)CCN3S(=O)(=O)N(C)Cc2ccccc2)CC1
- pIC50 [1]: 5.02

SMILES: CC(=O)c1ccc(Nc2ccc3c(c2)CCCN3S(=O)(=O)N(C)Cc2ccccc2)cc1
- pIC50 [1]: 5.12

SMILES: CN(Cc1ccccc1)S(=O)(=O)N1CCCc2cc(N3CCN(C(=O)C4CCC4)CC3)ccc21
- pIC50 [1]: 4.89

SMILES: CN(Cc1ccccc1)S(=O)(=O)N1CCCc2cc(N3CCN(C(=O)C(F)(F)F)CC3)ccc21
- pIC50 [1]: 5.31

SMILES: CC(=O)N1CCN(c2ccc3c(c2)CCCN3S(=O)(=O)N(C)Cc2ccc(C(O)(C(F)(F)F)C(F)(F)F)cc2)CC1
- pIC50 [1]: 5.85

SMILES: CN(Cc1ccccc1)S(=O)(=O)N1CCCc2cc(N3CCN(C(=O)C4CCOC4)CC3)ccc21 (stereo not drawn)
- pIC50 [1]: 4.73

SMILES: CN(Cc1ccc(C(C)(C)C)cc1)S(=O)(=O)N1CCCc2cc(Nc3ccc4c(c3)CCCC4=O)ccc21
- half-life [3]: 18.2 min
- Activity (Mus musculus [4]): Active
- Activity [5]: Non-toxic
- Drug uptake [6]: 0.019 mg
- microsomal CLint [7]: 76 µL/min/mg
- pIC50 [8]: < 4.40
- pIC50 [9]: 5.80
- Imax [2]: 95%
- Drug uptake [10]: Not_active
- Drug uptake [11]: 0.012 mg
- Activity (Mus musculus [12]): Active
- CLint scaled [13]: 301 mL/min/kg
- Drug uptake [14]: 3.27%
- Activity [15]: Non-toxic
- Activity [16]: Non-toxic
- Activity (Mus musculus [17]): 13%
- Activity (Mus musculus [18]): Active
- Activity (Mus musculus [19]): 2.41 g
- Drug uptake [20]: 5.22%
- Drug uptake [21]: 4.82%
- Drug uptake [22]: 5.79%
- Activity (Mus musculus [23]): Active
- pIC50 [1]: 7.03
- concentration at 10 min [24]: 75 ng/mL
- Activity (Mus musculus [25]): Active
- Activity (Mus musculus [26]): Active
- Activity (Mus musculus [27]): Active
- Activity [28]: Non-toxic
- Activity [29]: Non-toxic
- Drug uptake [30]: 0.012 mg
- Activity (Mus musculus [31]): Active
- Activity (Mus musculus [32]): Active
- Activity (Mus musculus [33]): Active
- Activity (Mus musculus [34]): Active

SMILES: CN(Cc1ccccc1)S(=O)(=O)N1CCCc2cc(N3CC4(COC4)C3)ccc21
- pIC50 [1]: 6.19

SMILES: CCc1ccc(N(CC(C)C)S(=O)(=O)c2ccc(OCC3CCOCC3)c(CO)c2)cc1 [GSK2981278]
- Activity [35]: Non-toxic
- Activity (Mus musculus [25]): Active

SMILES: CC(=O)N1CCN(c2ccc3c(c2)N(S(=O)(=O)N(C)Cc2ccccc2)CCC3)CC1
- pIC50 [1]: 7.01

SMILES: C[C@@H]1C[C@H]2[C@@H]3CCC4=CC(=O)C=C[C@]4(C)[C@@]3(F)[C@@H](O)C[C@]2(C)[C@@]1(O)C(=O)CO [DEXAMETHASONE]
- Activity (Mus musculus [36]): Active
- Activity (Mus musculus [37]): 18%
- Activity (Mus musculus [38]): 3.43 g

SMILES: CN(Cc1ccccc1)S(=O)(=O)N1CCCc2cc(N3CC4(CCOCC4)C3)ccc21
- pIC50 [1]: 4.72

SMILES: CCc1ccc(S(=O)(=O)N2CCCc3cc(N4CCN(C(C)=O)CC4)ccc32)cc1
- pIC50 [1]: 5.04
